Experimental data from US10980231B2, “Insect repellent” (Kao Corporation, priority 2015, dated 2021).

Tests used:
[1] = test system: Asian tiger mosquito; assay: Evaluation of inhibition of seeking behavior of mosquito for human arm (landing count); format: in vivo; set-up: tested at 0.1 vol %; conditions: sample 0.1 vol % in ethanol on breathable sheet on arm; landings in 5 minutes vs ethanol only; female mosquitoes
Protocol: Mosquitoes were prepared for evaluation in the same manner as in Example 1. Approximately 150 to 200 female Asian tiger mosquitoes were transferred in a plastic cage (30×30×30 cm). […] The other three sides were covered with a net, preventing a smell from remaining in the box. A breathable sheet for disposable diapers (air permeance (JIS P8117): 2 sec/300 mL·32 sheets or higher, water vapor transmission rate (JIS Z0208): 1 g/100 cm^2·1 hr or higher) was cut into a size of 6 cm×6 cm, and the resultant was fixed with a tape to the inner side of a Qualatex glove (AS ONE 8-4053-02) cut in 5 cm×5 cm, and […] of an evaluation sample, the concentration of which had been adjusted to 0.1 vol % with ethanol, was uniformly applied onto the breathable sheet. After the application, the resultant was left to stand for approximately 5 minutes, and the attraction test was conducted. The arm was covered with the Qualatex glove provided with the breathable sheet, and inserted in the plastic cage. After the insertion, the number of mosquitoes which landed on the breathable sheet in 5 minutes was counted. In the case that a mosquito landed a plurality of times, all of the landings were counted. In view of the influence of a sample on the mosquitoes, the test was conducted just four times in one cage, and the cage was then replaced with another cage and other mosquitoes were used for the subsequent tests. The inhibitory rate relative to the number of landings with application of ethanol solvent only was calculated to determine the inhibitory effect. Inhibitory rate (%)=100×(1−[number of landings with application of sample]/[number of landings with application of ethanol]) (Equation 2)

[2] = cited from earlier work
[3] = test system: insects; conditions: repellent use; cited from earlier work

| Structure (SMILES) | Inhibitory rate (%) [1] [%] | skin permeability [2] | duration [3] [h] |
| --- | --- | --- | --- |
| CCOC(=O)C(C)C1CCCCC1 (centres unmarked) [Ethyl 2-cyclohexylpropionate, ethyl 2-cyclohexylpropionate] | 58 |  |  |
| CCCc1ccc(O)c(OC)c1 [2-Methoxy-4-propylphenol, 2-methoxy-4-propylphenol] | 100 |  |  |
| CC1=CC(C)C(CO)C(C)C1 (centres unmarked) [2,4,6-Trimethyl-3-cyclohexene-1-methanol, 2,4,6-trimethyl-3-cyclohexene-1-methanol] | 89 |  |  |
| C=CCCCCCCCCO [9-Decen-1-ol, 9-decen-1-ol] | 93.5 |  |  |
| C=CC(O)CCCCC (centres unmarked) [1-Octen-3-ol, 1-octen-3-ol] | 70.5 |  |  |
| CCOC(=O)Cc1ccccc1 [Ethyl phenylacetate, ethyl phenylacetate] | 38.5 |  |  |
| CCCCC(CC)C(=O)OCC (centres unmarked) [Ethyl 2-ethylhexanoate, ethyl 2-ethylhexanoate] | 66 |  |  |
| CCC/C=C/COC(C)=O [trans-2-Hexenyl acetate, trans-2-hexenyl acetate] | 54 |  |  |
| CCN(CC)C(=O)c1cccc(C)c1 [DEET, N,N-diethyl-3-methylbenzamide] |  | high skin permeability | 2 to 3 |
| CCCCCCCCCCO [1-Decanol, 1-decanol] | 97.5 |  |  |
